In patent US20150173847A1, “IMAGING MARKER AND UTILIZATION THEREOF” (priority 2012, published 2015):
Values joined by “and” are separate entries in the source; they are usually repeats but may differ in a detail not shown here. Equal values may be shown once. Read-outs that look alike come from different tables or passages of the source.

Assays:
[1] = Density of the aqueous solutions calculated from the weight of 2 mL in a tube; format: physicochemical
[2] = T1 and T2 relaxivity measurement by spin echo MRI at varying concentrations; format: physicochemical
[3] = as in the Examples
[4] = at 20 to 25° C., cited from earlier work
[5] = aqueous solution that exhibited maximum MRI contrast
[6] = aqueous solution, spin echo, 22° C.

density of solution ([1]; no matter what concentration the solution may have)	Compound	Density [1] [g/mL]	density of solution [1]	r1 (T1 relaxivity) [2]	Density [1, 5] [g/mL]	r1 (T1 relaxivity) [2, 6] [mM⁻¹ s⁻¹]	r1 (T1 relaxivity) ([2]; aqueous solution, spin echo, 22° C., listed as SPT) [mM⁻¹ s⁻¹]	water solubility [3] [mg/mL]	maximum density of aqueous solution ([4]; listed as sodium polytungstate (SPT))	maximum density of aqueous solution [4] [g/mL]
–	O=S(=O)([O-])[O-].[Cu+2] [Cu (CuSO4), Copper sulfate]	1.0	about 1 g/mL	0.63 and 0.63 mM−1 · sec^−1	–	–	–	–	–	–
about 1 g/mL	CNC[C@H](O)[C@@H](O)[C@H](O)[C@H](O)CO.CNC[C@H](O)[C@@H](O)[C@H](O)[C@H](O)CO.O=C([O-])CN(CCN(CC(=O)[O-])CC(=O)O)CCN(CC(=O)[O-])CC(=O)O.[Gd+3] [Gd (Gd-DTPA), meglumine gadopentetate]	–	–	–	1.0	4.2	–	–	–	–
–	O.[Na+].[Na+].[Na+].[Na+].[Na+].[Na+].[O]=[W](=[O])([O-])[O-].[O]=[W](=[O])([O-])[O-].[O]=[W](=[O])([O-])[O-].[O]=[W](=[O])=[O].[O]=[W](=[O])=[O].[O]=[W](=[O])=[O].[O]=[W](=[O])=[O].[O]=[W](=[O])=[O].[O]=[W](=[O])=[O].[O]=[W](=[O])=[O].[O]=[W](=[O])=[O].[O]=[W](=[O])=[O] [W (SPT), Sodium polytungstate]	–	–	–	3.0	0.00036	0.00036	> 1000	at most 3.08 g/mL	3.08
